How the values were obtained:
BIR3 domain of XIAP = BIR3 domain of XIAP (Homo sapiens, UniProt P98170); assay: affinity for BIR3 domain of XIAP; format: binding
[1] = test system: orthotopic breast cancer model MDA-MB-231; assay: orthotopic breast cancer model MDA-MB-231, anti-tumor activity; format: in vivo; conditions: in combination with Paclitaxel; established tumors treated for two weeks; compared to either single agent
melanoma cell line A375 = assay: three day proliferation assay in A375; format: cell-based
Description: Bottom two curves show Taxol dose response in presence of either 6 μM or 12 μM compound of formula (III).

[2] = test system: ovarian carcinoma line SKOV3; assay: anti-proliferative activity of combination with Docetaxel in SKOV3 in vitro; format: cell-based; conditions: across a dose range
Text: FIG. 1 indicates anti-proliferative activity of compound of formula (III) alone (bottom row), Docetaxel alone (most leftward column) and combinations of the two agents across a dose range. FIG. 2 is the corresponding isobologram at 70% growth inhibition.

MDA231 = assay: 72 hr MTS assay, LBW242 with or without Taxol, MDA231; format: cell-based, human
Text: (§1) 1. […] MTS Data is generated as described below:
(§2) Selection of IAP Inhibitor Dose Levels

BIR3 domain of CIAP1 = BIR3 domain of CIAP1 (Homo sapiens, UniProt Q13490); assay: affinity for BIR3 domain of CIAP1; format: binding
Chain of BIR3 domain of CIAP1 (Q13490 253-363 limits assumed): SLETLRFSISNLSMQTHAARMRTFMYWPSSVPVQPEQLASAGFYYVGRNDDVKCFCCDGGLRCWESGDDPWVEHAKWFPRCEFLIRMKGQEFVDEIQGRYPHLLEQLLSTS

SKOV3 = assay: 72 hr MTS assay, LBW242 with or without Taxol, SKOV3; format: cell-based, human
Text: as §1, §2

[3] = test system: tumor cell lines representing lung, ovarian, melanoma, pancreatic cancers; assay: 72 hr MTS assay, panels of tumor cell lines (lung, ovarian, melanoma, pancreatic)
Description: To determine whether the spectrum of tumor cell lines which responded to these agents would be wider in combination with the cytotoxic drug Taxol, we subject panels of tumor cell lines representing a number of human cancers to in vitro combination analyses.
MTS Reagent (#G1111; Promega) in PBS, pH 6-6.5. […] Tumor Cell Lines are purchased from ATCC.
Cell proliferation/cell death is analyzed in 72 hr. […] Tumor cell lines are plated at subconfluent densities in 96 well plate format and allowed to adhere for 12-16 hr. Cpds are then added according to the following schemes: i.
Chemotherapeutic agents or cytotoxic cpds (Ctx) are added alone, in an 8-point/10-fold titration scheme from high to low dose, in triplicate. ii. […] Once all dosing is completed, cells are cultured for a further 72 hr. and then assayed using the MTS format:
Plate cells in RPMI/10% FBS Complete medium. […]
Add MTS/PMS reagents to T.0 Plate(s). […] Read OD 490 nm using SoftMax Pro software on a Molecular Devices (Sunnyvale, Calif.) Spectrophotometer. Calculate T.0 values for each cell line to be assayed by generating the mean value of the OD 490 nm readings from each cell line's T.0 wells (6/cell line) and subtracting the mean OD 490 nm values from Blank wells. […]
Add 20 ul mixture to ea. well & incubate plate(s) 2 hr. @ 37° C./5% CO2. Read OD 490 nm using SoftMax Pro software on a Molecular Devices Spectrophotometer. […]

[4] = criterion: minimum five fold potency shift of Taxol IC50 relative to Taxol alone

Chain of BIR3 domain of XIAP (P98170 241-356 limits assumed): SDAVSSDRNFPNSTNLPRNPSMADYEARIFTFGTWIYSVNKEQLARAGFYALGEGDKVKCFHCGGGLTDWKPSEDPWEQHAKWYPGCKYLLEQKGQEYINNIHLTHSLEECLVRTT

In the case of `CN[C@@H](C)C(=O)N[C@H](C(=O)N1CCC[C@H]1c1nc(C(=O)c2ccc(F)cc2)cs1)C1CCCCC1` [LCL161], the affinity (BIR3 domain of XIAP) is reported as “nM affinity”.

For `CN[C@@H](C)C(=O)N[C@H](C(=O)N1CC[C@H]2CCN(CCc3ccccc3)C[C@H]21)C1CCCCC1` [compound of formula (III)], the “anti-tumor activity of the combination with Paclitaxel” value [1] was “superior anti-tumor activity compared to either agent administered as a single agent”, the “anti-proliferative activity of Taxol in combination” value (melanoma cell line A375; Taxol dose response in presence of 6 μM or 12 μM compound of formula (III), A375, three day) was “dramatically enhanced” and the stand alone activity (melanoma cell line A375; single agent, A375 (data not shown)) was “no stand alone activity”. The “interaction of the combination with Docetaxel (anti-proliferative activity)” value [2] was “significant synergy”.

In the case of `CN[C@@H](C)C(=O)N[C@H](C(=O)N1CC[C@H]2CCN(CCc3ccccc3)C[C@H]21)C1CCCCC1` [LBW242], the “combination activity with Taxol” value (MDA231; [4]) is reported as “exhibit combination activity”, the response to monotherapy (MDA231; single agent) is reported as “responsive” and the affinity (BIR3 domain of CIAP1) is reported as “nM affinity”. For the same compound, the “combination activity with Taxol” value (SKOV3; [4]) was “exhibit combination activity”, the response to monotherapy (SKOV3; single agent) was “responsive” and the “range of tumor cell lines sensitive in combination with a cytotoxic agent versus as a single agent” value ([3]; in combination with Taxol) was “slightly larger”. The “single agent activity across tumor cell lines” value ([3]; single agent, in vitro) was “single agent activity on a limited number of tumor cell lines”.

Source: US8906936B2, “Pharmaceutical combination comprising co-administration of taxane and N-(1-cyclohexyl-2-{2-[4-(4-fluoro-benzoyl)-thiazol-2-yl]-pyrrolidin-1-yl}-2-oxo-ethyl)-2-methylamino-propionamide or pharmaceutically acceptable salt(s) thereof” (Novartis AG, priority 2005, dated 2014)
